# Source: patent US9186344B2, “Glycogen or polysaccharide storage disease treatment method” (Baylor Research Institute, priority 2004, dated 2015)
# Key:
# [1] = system: FOD patients (CPT I, CACT, CPT II, VLCAD, TFP, LCHAD, SCAD deficiency); test: Odd chain fatty acid (triheptanoin) diet in patients with mitochondrial fat oxidation defects (FOD); format: in vivo, human; conditions: for Patient mortality / Patient mortality (deaths/patients): C7 Diet
# Description: Other examples of FODs that derive from errors in metabolism include: Carnitine Palmitoyl Transferase I (CPT I) deficiency, Carnitine-Acylcarnitine Translocase (CACT) deficiency, Carnitine Palmitoyl Transferase […] deficiency, very long chain acyl-CoA dehydrogenase (VLCAD) deficiency, Trifunctional Protein (TFP) deficiency, long chain acyl 3-hydroxy CoA dehydrogenase (LCHAD) and short chain acyl CoA dehydrogenase (SCAD) deficiency. Patients having each of these diseases were located and placed on an odd chain fatty acid diet, with informed consent and following under IRB.
# The odd chain fatty acid diet and therapy of the present invention was compared to conventional treatments, which include: (1) a low fat, high carbohydrate diet; avoid fasting; frequent or continuous feeding and night time corn starch; or (2) a medium chain triglyceride (MCT oil) for long chain disorders; or (3) insulin and glucose to inhibit lipolysis. However, current treatments fail to treat the hypoglycemia and hepatomegaly (which often persist), the frequency and severity of Rhabdomyolysis; muscle weakness and fatigue are not improved and heart function often remains abnormal. Biochemically, the failure of existing therapies leave patients with impaired Acetyl-CoA production and ketogenesis, there remains an increase Acyl-CoA:CoA (mitochondrion) ratio during illness, a decreased NADH:NAD ratio during illness (mitochondrion), hypoglycemia and hyperammonemia.
# Table 4 summarized a comparison of patent mortality for patients with FOD of conventional treatment (based on the literature, see *Neonatal onset; Conventional Diet Rx: JIMD 22: 488,1999), and the odd chain fatty acids of the present invention. There is a demonstrable increase in patient survival across a number of FODs.
# [2] = system: GSDII patient; test: Clinical course on triheptanoin diet, Example 2 patient; format: in vivo, human
# Description: Clinical Course. Following informed consent, the patient agreed to enter an approved IRB Protocol for dietary therapy with triheptanoin oil. […] Maximal inspiratory and expiratory pressures were 60 cm of water. […] And pO2=62.
# The oral diet consisted of 2900 Kcal on admission. […] Total caloric intake was maintained at ˜2800 per day during his 30 day admission.
# Initially, the patient required assistance and supervision with grooming, upper and lower extremity dressing, bathing, and toileting. The patient also required maximal assistance with ambulation and transfers from bed to wheelchair. […] They continued to require supervision, but without assistance, with transfers from bed to wheelchair and to toilet and shower. They had clearly made improvements in strength and endurance with exercise.
# [3] = system: adult-onset GSD II patient; test: Urinary organic acids / blood acylcarnitines, Example 1 patient; format: in vivo, human; conditions: C7 increased from 26 to 40% of total caloric intake (1.0 to 2.0 gm/Kg/day)
# Method: Organic Acids may be measured as follows. Organic acids in urine specimens are determined with isolation by Liquid Partition Chromatography (LPC) and quantitative Gas Chromatography-Mass Spectrometry (GCMS) using an internal standard. The specimen is derivatized to form pentafluorobenzyl oximes (PFBO) of oxo-acids and the organic acids isolated by Liquid Partition chromatography on silicic acid hydrated with dilute sulfuric acid and eluted with mixtures of tert-Amyl alcohol and chloroform. After drying, the organic acids are derivatized to form volatile trimethylsilyl (TMS) derivatives for separation by capillary Gas Chromatography (GC) with temperature programming. Detection is by Mass Spectrometry (MS) with identification of the organic acids by their mass spectra. Organic acids are quantified by peak areas of reconstructed ion chromatograms with internal standards and calibration curves.
# Acylcarnitine Profiles. […] An automated sample introduction system delivers the samples to the electrospray tandem mass spectrometer (ESI-MS/MS) operating in the multiple channel analysis mode in which acylcarnitines are identified, profiled, and quantified with stable isotopically labeled internal standards. This test also provides quantification of free, sum of acylcarnitines, and total carnitine levels. […]
# [4] = Blood acylcarnitine profile after triheptanoin via nasogastric tube; format: in vivo, horse
# Description: Acylcarnitine Profiles. Acylcarnitines and carnitine levels in dried blood spots (dbs), plasma and amniotic fluid by automated electrospray tandem mass spectrometry Acylcarnitines are extracted from blood spots, plasmas and amniotic fluid with methanol containing stable isotopically labeled internal standards. The extract is derivatized to form butyl esters. An automated sample introduction system delivers the samples to the electrospray tandem mass spectrometer (ESI-MS/MS) operating in the multiple channel analysis mode in which acylcarnitines are identified, profiled, and quantified with stable isotopically labeled internal standards. This test also provides quantification of free, sum of acylcarnitines, and total carnitine levels.
# Horses: Eight healthy, fit 4 year old thoroughbred geldings may be used in a study. These horses are all sound and trained to the treadmill. The ability of horses to absorb and digest C7 oil was first determined.
# [5] = dietary triheptanoin supplementation, FOD patients
smiles,measurement,setting,value
"CCCCCCC(=O)OCC(COC(=O)CCCCCC)OC(=O)CCCCCC [C7, triheptanoin]",Patient mortality,"[1]; CACT, neonatal onset",100%
same,Patient mortality (deaths/patients),"[1]; CACT, neonatal onset",1/1
same,retinopathy (Choroideremia),[1]; LCHAD patients,unchanged
same,Patient mortality,[1]; LCHAD,0%
same,Patient mortality (deaths/patients),[1]; LCHAD,0/9
same,peripheral neuropathy,[1]; TFP patients,unchanged
same,Patient mortality,[1]; TFP,0%
same,Patient mortality (deaths/patients),[1]; TFP,1/5
same,Patient mortality,[1]; VLCAD,5%
same,Patient mortality (deaths/patients),[1]; VLCAD,1/19
same,Rhabdomyolysis,[1]; [5],marked attenuation of Rhabdomyolysis
same,cardiomyopathies,[1]; [5],cardiomyopathies were resolved
same,glucose homeostasis,[1]; [5],normal glucose homeostasis was observed
same,hepatomegaly,[1]; [5],elimination of hepatomegaly
same,mortality,[1]; [5],reduced mortality
same,muscle strength and endurance,[1]; [5],improved muscle strength and endurance
same,CPK (creatine kinase) levels,"[1]; long-chain defects, FIG. 9",rapidly suppresses CPK levels
same,increase in total vital capacity,"[2]; at discharge compared to admission, diet plus physical therapy",700 mL
same,functional status at discharge,"[2]; intensive physical therapy and diet, 30 day admission","independent with grooming, upper and lower extremity dressing, toileting, and locomotion with a manual wheelchair"
same,propionyl overload from the metabolism of heptanoate,[3],without any evidence for propionyl overload
same,time of peak of C7 acyl carnitine,"[4]; 0.5 gm/kg via nasogastric tube, fasted 12 hours, three horses",90 min
same,time of peak serum concentration of C3 acylcarnitine,[4]; in vivo,120 min
same,time of peak serum concentration of C5 acylcarnitine,[4]; in vivo,120 min
